# Legend:
# [1] = biological target: T1, Peroxisome proliferator-activated receptor gamma (Homo sapiens, UniProt P37231); experiment: Agonist activity at human PPAR gamma by luciferase reporter gene assay
# T1 sequence (P37231 whole entry): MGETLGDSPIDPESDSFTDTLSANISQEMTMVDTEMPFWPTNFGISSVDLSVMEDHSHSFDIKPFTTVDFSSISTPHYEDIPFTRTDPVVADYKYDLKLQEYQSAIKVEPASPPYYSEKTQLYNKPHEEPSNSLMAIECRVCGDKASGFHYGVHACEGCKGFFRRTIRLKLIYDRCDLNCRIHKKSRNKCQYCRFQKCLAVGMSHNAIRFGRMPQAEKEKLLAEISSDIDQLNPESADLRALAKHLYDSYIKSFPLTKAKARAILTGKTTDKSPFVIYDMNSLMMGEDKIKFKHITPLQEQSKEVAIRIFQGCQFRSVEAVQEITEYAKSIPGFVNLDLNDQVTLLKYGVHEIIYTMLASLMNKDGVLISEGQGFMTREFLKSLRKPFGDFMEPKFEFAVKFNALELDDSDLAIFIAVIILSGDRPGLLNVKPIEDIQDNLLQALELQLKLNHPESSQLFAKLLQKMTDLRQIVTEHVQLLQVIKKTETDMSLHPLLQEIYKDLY
# [2] = biological target: T2, Peroxisome proliferator-activated receptor delta (Homo sapiens, UniProt Q03181); experiment: Agonist activity at human PPAR delta by luciferase reporter gene assay
# T2 sequence (Q03181 whole entry): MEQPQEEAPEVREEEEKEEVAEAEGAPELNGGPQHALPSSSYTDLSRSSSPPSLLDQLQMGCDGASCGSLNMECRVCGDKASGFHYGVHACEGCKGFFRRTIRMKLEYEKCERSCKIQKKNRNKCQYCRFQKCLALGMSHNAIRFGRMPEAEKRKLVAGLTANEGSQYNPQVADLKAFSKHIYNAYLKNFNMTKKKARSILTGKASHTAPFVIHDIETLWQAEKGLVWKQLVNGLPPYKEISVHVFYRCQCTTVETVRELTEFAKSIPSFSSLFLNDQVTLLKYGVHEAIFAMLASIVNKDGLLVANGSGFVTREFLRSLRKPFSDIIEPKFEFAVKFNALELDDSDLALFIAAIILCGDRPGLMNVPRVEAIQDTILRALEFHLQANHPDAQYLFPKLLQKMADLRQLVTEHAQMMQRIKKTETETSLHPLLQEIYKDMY
# [3] = Acute toxicity in male Albino mouse assessed as mortality at upto 2000 mg/kg, po measured upto 7 days; type: organism-based; conditions: in vivo, 168 h, time < 7 day
# [4] = biological target: T3, Peroxisome proliferator-activated receptor alpha (Homo sapiens, UniProt Q07869); experiment: Agonist activity at human PPAR alpha by luciferase reporter gene assay
# T3 sequence (Q07869 whole entry): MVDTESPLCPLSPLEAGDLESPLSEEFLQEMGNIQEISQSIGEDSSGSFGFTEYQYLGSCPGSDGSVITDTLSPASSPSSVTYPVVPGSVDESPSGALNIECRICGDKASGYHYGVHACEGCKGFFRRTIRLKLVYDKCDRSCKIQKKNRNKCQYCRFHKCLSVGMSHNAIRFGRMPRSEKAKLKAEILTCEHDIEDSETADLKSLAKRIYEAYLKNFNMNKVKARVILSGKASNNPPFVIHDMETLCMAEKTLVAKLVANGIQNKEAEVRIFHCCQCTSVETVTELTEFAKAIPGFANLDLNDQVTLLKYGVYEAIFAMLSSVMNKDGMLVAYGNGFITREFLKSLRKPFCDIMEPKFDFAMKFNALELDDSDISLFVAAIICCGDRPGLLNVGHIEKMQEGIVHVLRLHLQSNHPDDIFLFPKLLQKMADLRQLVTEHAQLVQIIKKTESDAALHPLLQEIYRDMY
# Rattus norvegicus [5] = experiment: Antidiabetic activity against STZ induced Albino Wistar rat diabetic model assessed as hypoglycaemic effect at 36 mg/kg, po administered as single dose and measured after 15 days; type: functional; conditions: time 15 day
# Rattus norvegicus [6] = experiment: Antidiabetic activity against NA-STZ induced Wistar rat model of type 2 diabetes assessed as decrease in blood glucose level at 36 mg/kg, po measured after 21 days relative to control; type: functional; design: scale not given: the % may be the effect or the level left; conditions: time 21 day
# Rattus norvegicus [7] = experiment: Antidiabetic activity against NA-STZ induced Wistar rat model of type 2 diabetes assessed as increase in C-peptide level at 36 mg/kg, po measured after 21 days by ELISA method relative to control; type: functional; conditions: time 21 day
SMILES,EC50 [1],EC50 [2],Activity [3],EC50 [4],Activity (Rattus norvegicus [5]),Activity (Rattus norvegicus [6]),Activity (Rattus norvegicus [7])
COc1cc(/C=C2\SC(Nc3ccc(S(N)(=O)=O)cc3)=NC2=O)ccc1OCCc1ccccc1,11.1 µM,16.3 µM,Toxic,–,–,–,–
COc1cc(/C=C2\SC(Nc3ccc(S(N)(=O)=O)cc3)=NC2=O)ccc1OCc1ccc(C)cc1,–,48.1 µM,Toxic,40.9 µM,–,–,–
COc1cccc(COc2cc(/C=C3\SC(Nc4ccc(S(N)(=O)=O)cc4)=NC3=O)ccc2OC)c1,2.94 µM,–,Non-Toxic,22.7 µM,–,–,–
COc1cccc(COc2ccc(/C=C3\SC(Nc4ccc(S(N)(=O)=O)cc4)=NC3=O)cc2OC)c1,3.98 µM,15.4 µM,Non-Toxic,–,–,–,–
NS(=O)(=O)c1ccc(NC2=NC(=O)/C(=C/c3ccc(OCc4ccc(Cl)cc4)cc3)S2)cc1,–,35.2 µM,Toxic,–,–,–,–
NS(=O)(=O)c1ccc(-n2cc(/C=C3\SC(=O)NC3=O)c(-c3ccc4ccccc4c3)n2)cc1,–,–,–,–,134.1 mg/dL,–,–
CC(C)(Oc1ccc(CCNC(=O)c2ccc(Cl)cc2)cc1)C(=O)O [BEZAFIBRATE],83.3 µM,25.9 µM,–,–,–,–,–
CCc1ccc(CCOc2ccc(CC3SC(=O)NC3=O)cc2)nc1 (stereo not given) [PIOGLITAZONE],–,–,–,–,132.2 mg/dL,35%,38.6%

# Reference: ChEMBL document CHEMBL5500330, “Novel thiazolidin-4-one benzenesulfonamide hybrids as PPARγ agonists: Design, synthesis and in vivo anti-diabetic evaluation” (Eur J Med Chem, 2024)
